pIC50: −log10 of the molar value. Each block holds one compound with its values, some of them ahead of it.
Columns and labels:
[1] = Cytotoxicity against human THP1-Dual cells assessed as reduction in cell viability incubated for 24 hrs by CCK-8 assay; format: toxicity, cell-based
Cyclic GMP-AMP synthase [2] = biological target: T1, Cyclic GMP-AMP synthase (Homo sapiens, UniProt Q8N884); assay: Inhibition of human cGAS expressed in THP1-Dual cells transfected with HT-DNA assessed as suppression of lipofectamine 2000:ds-DNA complex induced activation of cGAS incubated for 1 hr by Quanti-luc reagent based assay; format: cell-based
[3] = Cytotoxicity against mouse RAW-Lucia ISG cells assessed as reduction in cell viability incubated for 24 hrs by CCK-8 assay; format: toxicity, cell-based
Cyclic GMP-AMP synthase [4] = biological target: T2, Cyclic GMP-AMP synthase (Mus musculus, UniProt Q8C6L5); assay: Inhibition of mouse cGAS expressed in RAW-Lucia ISG transfected with HT-DNA assessed as suppression of lipofectamine 2000:ds-DNA complex induced activation of cGAS incubated for 1 hr by Quanti-luc reagent based assay; format: cell-based
Mus musculus [5] = assay: Anti-inflammatory activity against LPS-induced acute lung injury BALB/c mouse model assessed as inhibition of LPS-induced TNFalpha release by measuring fold decrease in TNFalpha level at 30 mg/kg, ip treated 1 hr before LPS stimulation and measured after 1.5 hrs by ELISA; format: functional; details: time 2.5 hrs
Mus musculus [6] = assay: Anti-inflammatory activity against LPS-induced acute lung injury BALB/c mouse model assessed as inhibition of LPS-induced IL-6 release by measuring fold decrease in IL-6 level at 30 mg/kg, ip treated 1 hr before LPS stimulation and measured after 1.5 hrs by ELISA; format: functional; details: time 2.5 hrs
Mus musculus [7] = assay: Anti-inflammatory activity against LPS-induced acute lung injury BALB/c mouse model assessed as inhibition of LPS-induced IL-12 release by measuring fold decrease in IL-12 level at 30 mg/kg, ip treated 1 hr before LPS stimulation and measured after 1.5 hrs by ELISA; format: functional; details: time 2.5 hrs
Cyclic GMP-AMP synthase [8] = biological target: T1, Cyclic GMP-AMP synthase; assay: Inhibition of human cGAS assessed as reduction in 2,3-cGAMP synthesis by measuring ATP consumption incubated for 20 mins by Kinase Glo luminescence assay
Cyclic GMP-AMP synthase [9] = biological target: T2, Cyclic GMP-AMP synthase; assay: Inhibition of mouse cGAS
Cyclic GMP-AMP synthase [10] = biological target: T1, Cyclic GMP-AMP synthase; assay: Inhibition of human cGAS incubated for 1 hr followed by Cy5-labeled cGAMP addition and measured after 1 hr by fluorescence polarization assay

T1 sequence (Q8N884 whole entry): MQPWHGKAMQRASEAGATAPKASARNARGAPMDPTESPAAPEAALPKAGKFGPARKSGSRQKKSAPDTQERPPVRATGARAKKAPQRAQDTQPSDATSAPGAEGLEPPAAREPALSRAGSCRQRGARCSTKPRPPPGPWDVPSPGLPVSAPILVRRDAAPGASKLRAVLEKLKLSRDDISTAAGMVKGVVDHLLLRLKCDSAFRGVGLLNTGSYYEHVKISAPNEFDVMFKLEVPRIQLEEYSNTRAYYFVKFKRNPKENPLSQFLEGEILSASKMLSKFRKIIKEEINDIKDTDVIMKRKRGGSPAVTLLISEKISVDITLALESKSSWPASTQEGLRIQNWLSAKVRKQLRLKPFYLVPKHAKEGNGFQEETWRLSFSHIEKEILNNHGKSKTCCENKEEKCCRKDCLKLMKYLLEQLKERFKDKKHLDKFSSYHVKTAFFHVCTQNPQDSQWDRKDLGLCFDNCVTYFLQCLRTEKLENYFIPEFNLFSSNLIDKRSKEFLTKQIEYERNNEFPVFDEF
T2 sequence (Q8C6L5 whole entry): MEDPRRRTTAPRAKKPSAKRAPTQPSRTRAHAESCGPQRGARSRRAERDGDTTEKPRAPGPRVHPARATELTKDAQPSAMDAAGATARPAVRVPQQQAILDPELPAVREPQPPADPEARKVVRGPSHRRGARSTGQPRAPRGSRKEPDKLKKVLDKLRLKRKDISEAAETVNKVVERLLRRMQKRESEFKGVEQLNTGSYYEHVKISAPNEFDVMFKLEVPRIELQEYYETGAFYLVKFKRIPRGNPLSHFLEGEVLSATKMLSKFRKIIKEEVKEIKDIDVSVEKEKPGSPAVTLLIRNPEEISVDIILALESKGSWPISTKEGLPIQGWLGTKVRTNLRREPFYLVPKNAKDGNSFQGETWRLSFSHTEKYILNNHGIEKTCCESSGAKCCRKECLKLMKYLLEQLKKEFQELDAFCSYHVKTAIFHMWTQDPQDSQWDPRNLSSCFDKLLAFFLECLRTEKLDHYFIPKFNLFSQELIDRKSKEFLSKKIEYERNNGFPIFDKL

pIC50 (Cyclic GMP-AMP synthase [2]): 5.86 | pIC50 (Cyclic GMP-AMP synthase [4]): 4.94
SMILES: Cn1ccc(-c2cc(Cl)c(Cl)c3[nH]c4c(c23)CN(C(=O)CNC(=O)CN)CC4)n1
CC50 at 24 h [1]: 25.3 µM | CC50 at 24 h [3]: 33 µM | fold change (FC) (Mus musculus [5]): 2.6 | fold change (FC) (Mus musculus [6]): 2.5 | fold change (FC) (Mus musculus [7]): 7.6

pIC50 (Cyclic GMP-AMP synthase [8]): 6.62
SMILES: COC(=O)c1nc(N)nc(Nc2cc(F)c(I)c(F)c2)n1

pIC50 (Cyclic GMP-AMP synthase [9]): < 4.60
SMILES: Nc1ccc(-c2cc(Cl)c(Cl)c3[nH]c4c(c23)CN(C(=O)CO)CC4)cn1

pIC50 (Cyclic GMP-AMP synthase [10]): 5.31
SMILES: N#Cc1c(NC(=O)c2n[nH]c(-n3cnnc3)n2)sc2c1CCCC2
